Tests used:
SR = assay: panel of 60 human tumor cell lines, growth inhibition (Leukemia)
T-47D = assay: panel of 60 human tumor cell lines, growth inhibition (Breast Cancer); conditions: for Percent Growth: T-47D
SK-MEL-28 = assay: panel of 60 human tumor cell lines, growth inhibition (Melanoma)
OVCAR-8 = assay: panel of 60 human tumor cell lines, growth inhibition (Ovarian Cancer)
COLO 205 = assay: panel of 60 human tumor cell lines, growth inhibition (Colon Cancer)
HT29 = assay: as above; conditions: for Percent Growth: HT29
ACHN = assay: panel of 60 human tumor cell lines, growth inhibition (Renal Cancer)
CCRF-CEM = assay: panel of 60 human tumor cell lines, growth inhibition (Leukemia)
SF-539 = assay: panel of 60 human tumor cell lines, growth inhibition (CNS Cancer)
NCI-H23 = assay: panel of 60 human tumor cell lines, growth inhibition (Non-Small Cell Lung Cancer)

SMILES: C=C1C(=O)O[C@H]2[C@H]1CC/C(COC(=O)NCCc1ccccn1)=C\CC[C@@]1(C)O[C@@H]21 [JVM 61, ((1aR,7aS,10aS,10bS,E)-1a-methyl-8-methylene-9-oxo-1a,2,3,6,7,7a,8,9,10a,10b-decahydrooxireno[2′,3′:9,10]cyclodeca[1,2-b]furan-5-yl)methyl-(2-(pyridin-2-yl)ethyl)carbamate]
- GI50 (SR; Homo sapiens): 4.1 µM
- CC50 (SR; Homo sapiens, read-out: LC50): > 100 µM
- IC (TGI) (SR; Homo sapiens, read-out: TGI): 24.6 µM
- Percent Growth (SR; Log10 Concentration −4.0): −34%
- Percent Growth (SR; Log10 Concentration −5.0): 22%
- Percent Growth (SR; Log10 Concentration −6.0): 95%
- Percent Growth (SR; Log10 Concentration −7.0): 100%
- Percent Growth (SR; Log10 Concentration −8.0): 99%
- GI50 (T-47D; Homo sapiens, T47D): 6.19 µM
- CC50 (T-47D; Homo sapiens, T47D, read-out: LC50): > 100 µM
- IC (TGI) (T-47D; Homo sapiens, T47D, read-out: TGI): 25 µM
- Percent Growth (T-47D; Log10 Concentration −4.0): −43%
- Percent Growth (T-47D; Log10 Concentration −5.0): 35%
- Percent Growth (T-47D; Log10 Concentration −6.0): 106%
- Percent Growth (T-47D; Log10 Concentration −7.0): 104%
- Percent Growth (T-47D; Log10 Concentration −8.0): 98%
- GI50 (SK-MEL-28; Homo sapiens, SK-MEL-28): 5.25 µM
- CC50 (SK-MEL-28; Homo sapiens, SK-MEL-28, read-out: LC50): 45.5 µM
- IC (TGI) (SK-MEL-28; Homo sapiens, SK-MEL-28, read-out: TGI): 18.1 µM
- Percent Growth (SK-MEL-28; SK-MEL-28, Log10 Concentration −4.0): −93%
- Percent Growth (SK-MEL-28; SK-MEL-28, Log10 Concentration −5.0): 32%
- Percent Growth (SK-MEL-28; SK-MEL-28, Log10 Concentration −6.0): 96%
- Percent Growth (SK-MEL-28; SK-MEL-28, Log10 Concentration −7.0): 96%
- Percent Growth (SK-MEL-28; SK-MEL-28, Log10 Concentration −8.0): 104%
- GI50 (OVCAR-8; Homo sapiens, OVCAR-8): 4.39 µM
- CC50 (OVCAR-8; Homo sapiens, OVCAR-8, read-out: LC50): 65.1 µM
- IC (TGI) (OVCAR-8; Homo sapiens, OVCAR-8, read-out: TGI): 18.5 µM
- Percent Growth (OVCAR-8; OVCAR-8, Log10 Concentration −4.0): −67%
- Percent Growth (OVCAR-8; OVCAR-8, Log10 Concentration −5.0): 25%
- Percent Growth (OVCAR-8; OVCAR-8, Log10 Concentration −6.0): 96%
- Percent Growth (OVCAR-8; OVCAR-8, Log10 Concentration −7.0): 100%
- Percent Growth (OVCAR-8; OVCAR-8, Log10 Concentration −8.0): 108%
- Percent Growth (COLO 205; COLO 205, Log10 Concentration −4.0): −79%
- Percent Growth (COLO 205; COLO 205, Log10 Concentration −5.0): 3%
- Percent Growth (COLO 205; COLO 205, Log10 Concentration −6.0): 107%
- Percent Growth (COLO 205; COLO 205, Log10 Concentration −7.0): 108%
- Percent Growth (COLO 205; COLO 205, Log10 Concentration −8.0): 104%
- GI50 (COLO 205; Homo sapiens, COLO 205): 3.54 µM
- CC50 (COLO 205; Homo sapiens, COLO 205, read-out: LC50): 44.6 µM
- IC (TGI) (COLO 205; Homo sapiens, COLO 205, read-out: TGI): 11 µM
- Percent Growth (HT29; Log10 Concentration −4.0): −78%
- Percent Growth (HT29; Log10 Concentration −5.0): 24%
- Percent Growth (HT29; Log10 Concentration −6.0): 110%
- Percent Growth (HT29; Log10 Concentration −7.0): 106%
- Percent Growth (HT29; Log10 Concentration −8.0): 104%
- GI50 (HT29; Homo sapiens, HT-29): 4.69 µM
- CC50 (HT29; Homo sapiens, HT-29, read-out: LC50): 53.1 µM
- IC (TGI) (HT29; Homo sapiens, HT-29, read-out: TGI): 17.2 µM
- GI50 (ACHN; Homo sapiens): 2.75 µM
- CC50 (ACHN; Homo sapiens, read-out: LC50): 34.5 µM
- IC (TGI) (ACHN; Homo sapiens, read-out: TGI): 11.3 µM
- Percent Growth (ACHN; Log10 Concentration −4.0): −98%
- Percent Growth (ACHN; Log10 Concentration −5.0): 5%
- Percent Growth (ACHN; Log10 Concentration −6.0): 85%
- Percent Growth (ACHN; Log10 Concentration −7.0): 97%
- Percent Growth (ACHN; Log10 Concentration −8.0): 102%
- GI50 (CCRF-CEM; Homo sapiens): 2.65 µM
- GI50 (CCRF-CEM; Homo sapiens, 5-dose assay): 2.65 µM
- CC50 (CCRF-CEM; Homo sapiens, read-out: LC50): > 100 µM
- IC (TGI) (CCRF-CEM; Homo sapiens, read-out: TGI): 8.59 µM
- Percent Growth (CCRF-CEM; Log10 Concentration −4.0): −39%
- Percent Growth (CCRF-CEM; Log10 Concentration −5.0): −6%
- Percent Growth (CCRF-CEM; Log10 Concentration −6.0): 91%
- Percent Growth (CCRF-CEM; Log10 Concentration −7.0): 100%
- Percent Growth (CCRF-CEM; Log10 Concentration −8.0): 104%
- GI50 (SF-539; Homo sapiens, SF-539): 5.77 µM
- CC50 (SF-539; Homo sapiens, SF-539, read-out: LC50): 43.2 µM
- IC (TGI) (SF-539; Homo sapiens, SF-539, read-out: TGI): 15.4 µM
- Percent Growth (SF-539; SF-539, Log10 Concentration −4.0): −99%
- Percent Growth (SF-539; SF-539, Log10 Concentration −5.0): 36%
- Percent Growth (SF-539; SF-539, Log10 Concentration −6.0): 96%
- Percent Growth (SF-539; SF-539, Log10 Concentration −7.0): 97%
- Percent Growth (SF-539; SF-539, Log10 Concentration −8.0): 103%
- GI50 (NCI-H23; Homo sapiens, NCI-H23): 11.3 µM
- CC50 (NCI-H23; Homo sapiens, NCI-H23, read-out: LC50): 78.8 µM
- IC (TGI) (NCI-H23; Homo sapiens, NCI-H23, read-out: TGI): 29.9 µM
- Percent Growth (NCI-H23; NCI-H23, Log10 Concentration −4.0): −62%

Reference: US9469650B2, “Melampomagnolide B derivatives” (BOARD OF TRUSTEES OF THE UNIVERSITY OF ARKANSAS, priority 2013, dated 2016)
